Data on nine sequences can be found in the supplement of paper PMC5844555.

Common to all, as to test: 3' UTR reporter interaction score (median-centred robust z-score of log2 firefly/Renilla activity); higher = less repression of the 3' UTR reporter
Holding throughout (details): HEK293T; 48 h

In data set [1] the test system is ZEB2. In short, it runs like this:
(§1)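 The interaction score is based on the log-transformed firefly/Renilla luciferase ratio, scaled as a robust z-score within each plate by median and median absolute deviation and median-centred for each miRNA; more negative scores indicate interaction. It was averaged over at least two independent screens. Readings were taken 48 h after HEK293T cells (10,000/well, 96-well plates) were co-transfected by DharmaFECT Duo with 100 ng firefly luc2P 3' UTR reporter, 20 ng Renilla pRL-TK and 2.5 pmol miRNA mimic.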

The subject of data set [2] is FBXW7. In short, it runs like this: as §1
The test system of data set [3] is MYB. In short, it runs like this: as §1
The test system of data set [4] is RB1. In short, it runs like this: as §1
Data set [5] has as its system BRCA2. In short, it runs like this:
as §1

The test system of data set [6] is HRAS. In short, it runs like this:
as §1

Data set [7] deals with EZH2. In short, it runs like this:
as §1

Data set [8] has as its system TP53. In short, it runs like this: as §1
The test system of data set [9] is MYT1L. In short, it runs like this:
as §1

Data set [10] has as its system PHF6. In short, it runs like this: as §1
For data set [11], the system named is PHOX2B. In short, it runs like this:
as §1

Data set [12] relates to MYCN. In short, it runs like this:
as §1

Data set [13] concerns MYC. In short, it runs like this:
as §1

Data set [14] deals with NOTCH1. In short, it runs like this:
as §1

On to GAGGUUGUCCGUGGUGAGUUCG, for which the “3' UTR reporter interaction score” value in [1] was 0.323; in data set [2], -1.94; in data set [3] it was 0.0834; in data set [4], -0.327; in data set [5], -0.325; in data set [6], -0.768. Besides, the “3' UTR reporter interaction score” value in data set [7] is -0.239; in data set [8], -0.45; in [9] it was 0.00527; in data set [10], -0.125; in data set [11], 0.511; in [12] it was -0.211. The “3' UTR reporter interaction score” value in data set [13] is -2.33; in [14] it was 0.138.
In the case of GAGUGCCUUCUUUUGGAGCGU, the “3' UTR reporter interaction score” value in data set [1] was -0.377; in data set [2] it was 0.805; in data set [3], -0.982; in data set [4] it was 0.093; in [5] it was -0.0488; in data set [6] it was -0.294. For the same sequence, the “3' UTR reporter interaction score” value is 0.0213 in data set [7]; -0.254 in data set [8]; 1.25 in data set [9]; 2.96 in data set [10]; -3.88 in data set [11]; 0.414 in data set [12]. The “3' UTR reporter interaction score” value in data set [13] was -0.339; in [14], -0.567.
Turning to GAUGAGCUCAUUGUAAUAUG, the “3' UTR reporter interaction score” value in data set [1] was -1.1; in data set [2], 0.747; in data set [3], 0.0611; in [4] it was 0.134; in data set [5] it was -0.641; in [6], 0.049. Also, the “3' UTR reporter interaction score” value is 0.284 in [7]; 0.29 in data set [8]; 1.26 in [9]; -0.609 in data set [10]; -0.674 in data set [11]; 0.201 in data set [12]. For the same sequence, the “3' UTR reporter interaction score” value in data set [13] is -0.384; in [14], -0.218.
Turning to GAUUGCUCUGCGUGCGGAAUCGAC, the “3' UTR reporter interaction score” value is -0.205 in data set [1]; -0.34 in data set [2]; -0.474 in [3]; 0.524 in data set [4]; 0.00588 in data set [5]; -0.851 in data set [6]. For the same sequence, the “3' UTR reporter interaction score” value in data set [7] is 0.471; in [8], -0.352; in data set [9], -1.1; in data set [10], 0.0123; in data set [11] it was 0.972; in data set [12], -0.19. Besides, the “3' UTR reporter interaction score” value was -2.18 in data set [13] and -0.0878 in data set [14].
In the case of GCAAAGCACACGGCCUGCAGAGA, the “3' UTR reporter interaction score” value is 0.307 in data set [1]; 0.141 in data set [2]; 1.11 in data set [3]; -1.65 in data set [4]; 0.0737 in [5]; -0.313 in data set [6]. Further, the “3' UTR reporter interaction score” value was 0.138 in data set [7]; -0.0423 in data set [8]; -0.692 in data set [9]; 1.65 in data set [10]; -0.597 in [11]; -0.217 in data set [12]. Besides, the results for the “3' UTR reporter interaction score” value in [13] and in data set [14] were 0.499 and 0.357, respectively.
On to GCACAUUACACGGUCGACCUCU, for which the “3' UTR reporter interaction score” value is 1.19 in [1]; 0.52 in [2]; 0.761 in data set [3]; -0.0189 in data set [4]; -0.107 in [5]; -0.25 in data set [6]. The “3' UTR reporter interaction score” value in data set [7] was -0.1; in [8] it was -0.315; in data set [9] it was -0.0362; in [10], 0.116; in [11] it was -1.13; in data set [12], 0.192. Further, the “3' UTR reporter interaction score” value is -0.285 in data set [13] and -0.223 in [14].
With GCCCCUGGGCCUAUCCUAGAA, the “3' UTR reporter interaction score” value in data set [1] was -0.237; in data set [2] it was 0.0138; in [3], 0.244; in [4], 0.411; in data set [5], 0.566; in [6] it was -0.133. Besides, the “3' UTR reporter interaction score” value is 0.389 in data set [7]; -0.179 in [8]; -0.294 in data set [9]; 2.01 in data set [10]; -0.0536 in data set [11]; 0.221 in [12]. In addition, the “3' UTR reporter interaction score” value in data set [13] is -0.282; in [14], -0.931.
On to GCCUGCUGGGGUGGAACCUGG, for which the “3' UTR reporter interaction score” value in [1] was 0.26; in data set [2] it was -0.733; in data set [3], 0.0969; in data set [4], 1.37; in data set [5], 0.403; in data set [6], -0.0157. For the same sequence, the “3' UTR reporter interaction score” value in data set [7] was -0.39; in [8], -0.747; in [9], -0.443; in data set [10], 0.254; in data set [11] it was 0.0382; in [12] it was -0.962. Further, the “3' UTR reporter interaction score” value in data set [13] was 0.0868; in data set [14] it was -0.0223.
On to GCGACCCACUCUUGGUUUCCA, for which the “3' UTR reporter interaction score” value in data set [1] is -0.694; in data set [2], 0.92; in data set [3], 0.396; in data set [4], -2.3; in [5], -0.537; in data set [6] it was -0.85. For the same sequence, the “3' UTR reporter interaction score” value was 0.786 in [7]; 0.384 in [8]; -0.645 in [9]; -1.86 in data set [10]; 0.84 in [11]; 0.0444 in [12]. Moreover, the “3' UTR reporter interaction score” value in data set [13] was -0.5; in data set [14], 0.563.
